Laboratory results published in paper PMC7595150, “Amorphous solid dispersions of enzalutamide and novel polysaccharide derivatives: investigation of relationships between polymer structure and performance” (Scientific Reports, 2020).
Converted amounts (≈) assume the structure as drawn. Marks after values point to notes of the source that are not given here.

Assays:
[1] = Nucleation induction time of supersaturated enzalutamide solutions with pre-dissolved polymer (UV dip probe); assay type: physicochemical; conditions: absence of polymers; initial 70 μg/mL enzalutamide, pH 6.5 phosphate buffer, 37 °C
Method: The average time to detect the onset of crystallization for supersaturated solutions of enzalutamide was determined in phosphate buffer (pH 6.5, 50 mM) containing pre-dissolved polymer using an in situ UV dip probe as described by Mosquera-Giraldo et al.[11]. […] For enzalutamide the absorbance maximum is 237 nm and the baseline wavelength used was 446 nm. […] Next, a methanolic solution of enzalutamide (245 µL, 10 mg/mL) was added to the polymeric solution (35 mL) magnetically stirred at 300 rpm and maintained at 37 °C, leading to an initial enzalutamide concentration of 70 µg/mL. The experiments were performed in triplicate.

[2] = Aqueous solubility; assay type: physicochemical
[3] = cited from earlier work

CNC(=O)c1ccc(N2C(=S)N(c3ccc(C#N)c(C(F)(F)F)c3)C(=O)C2(C)C)cc1F [Enzalutamide]
Nucleation induction time [1]: ~ 15 min
Supersaturation ratio (S, amorphous solubility/crystalline solubility) [2]: approximately 14.5
solubility ([2]; crystalline form): 2.9 µg/mL (≈ 6.24 µM)
Aqueous solubility (amorphous solubility) ([3]; amorphous solubility of the drug): 0.042^a mg/mL
Free drug molecularly dissolved ([3]; when 70 μg/mL enzalutamide is added to buffer, rest is colloidal amorphous aggregates): approximately 42 μg/mL
